# In PubChem BioAssay (NCI):
#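 A five-concentration, 48-hour dose response in 96-well plates underlies each endpoint, interpolated linearly between surrounding concentrations. Abbreviation: GI50, concentration required for 50% inhibition of growth. Definition used: TGI = concentration required for complete inhibition of growth.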
# Legend:
# Test in all cases: DTP human tumour cell line panel, 48 h
# HL-60(TB) leukemia = test system: HL-60(TB) leukemia
# HOP-62 NSCLC = test system: HOP-62 NSCLC
# MCF7 breast = test system: MCF7 breast
# NCI-H23 lung = test system: NCI-H23 lung
# NCI-H460 lung = test system: NCI-H460 lung
# NCI/ADR-RES ovarian = test system: NCI/ADR-RES ovarian
# T-47D breast = test system: T-47D breast
# TK-10 renal = test system: TK-10 renal
smiles,measurement,setting,value
CC(=O)Nc1cc2cc(NS(=O)(=O)c3ccc(Cl)c(Cl)c3)ccc2oc1=O,TGI,HL-60(TB) leukemia,> 100 µM
same,TGI,HOP-62 NSCLC,46.7 µM
same,TGI,MCF7 breast,47.7 µM
same,TGI,NCI-H23 lung,> 100 µM
same,TGI,NCI-H460 lung,> 100 µM
same,TGI,NCI/ADR-RES ovarian,> 100 µM
same,TGI,T-47D breast,43.5 µM
same,TGI,TK-10 renal,> 100 µM
C#CC1(O)C(COP(=O)(O)OCC2OC(n3cc(F)c(=O)[nH]c3=O)CC2O)OC(n2ccc(N)nc2=O)C1O (configuration not stated),GI50,HL-60(TB) leukemia,< 0.011 µM
same,GI50,HOP-62 NSCLC,< 0.0328 µM
same,TGI,HOP-62 NSCLC,1.28 µM
same,GI50,MCF7 breast,< 0.01 µM
same,TGI,MCF7 breast,> 100 µM
same,GI50,NCI-H23 lung,< 0.0139 µM
same,TGI,NCI-H23 lung,0.449 µM
same,GI50,NCI-H460 lung,< 0.01 µM
same,TGI,NCI-H460 lung,> 21.5 µM
same,GI50,NCI/ADR-RES ovarian,< 0.0115 µM
same,TGI,NCI/ADR-RES ovarian,16 µM
same,GI50,T-47D breast,< 0.0238 µM
same,GI50,TK-10 renal,0.01 µM
CCN(CC)CCN1c2nc3ccccc3cc2Sc2cc3ccccc3nc21,GI50,HL-60(TB) leukemia,1.99 µM
same,TGI,HL-60(TB) leukemia,4.21 µM
same,GI50,HOP-62 NSCLC,1.42 µM
same,TGI,HOP-62 NSCLC,3.06 µM
same,GI50,MCF7 breast,0.75 µM
same,TGI,MCF7 breast,2.1 µM
same,GI50,NCI-H23 lung,2.51 µM
same,TGI,NCI-H23 lung,10.6 µM
same,GI50,NCI-H460 lung,1.52 µM
same,TGI,NCI-H460 lung,2.95 µM
same,GI50,NCI/ADR-RES ovarian,2.5 µM
same,TGI,NCI/ADR-RES ovarian,7.83 µM
same,GI50,T-47D breast,3.09 µM
same,TGI,T-47D breast,12.5 µM
same,GI50,TK-10 renal,3.54 µM
same,TGI,TK-10 renal,8.74 µM
C=C1C(=O)O[C@H]2[C@H]1CC/C(COC(=O)/C=C\C(=O)NCc1ccc(Cn3c(=O)sn(CCI)c3=O)cc1)=C\CC[C@@]1(C)O[C@@H]21,GI50,HL-60(TB) leukemia,1.59 µM
same,TGI,HL-60(TB) leukemia,5.41 µM
same,GI50,HOP-62 NSCLC,15.1 µM
same,TGI,HOP-62 NSCLC,28.6 µM
same,GI50,MCF7 breast,3.37 µM
same,TGI,MCF7 breast,25.9 µM
same,GI50,NCI-H23 lung,3.34 µM
same,TGI,NCI-H23 lung,11.8 µM
same,GI50,NCI-H460 lung,15.5 µM
same,TGI,NCI-H460 lung,37.9 µM
same,GI50,NCI/ADR-RES ovarian,10.2 µM
same,TGI,NCI/ADR-RES ovarian,> 100 µM
same,GI50,T-47D breast,2.58 µM
same,TGI,T-47D breast,6.83 µM
same,GI50,TK-10 renal,2.09 µM
same,TGI,TK-10 renal,4.35 µM
CCC(=O)N1C/C(=C/c2ccc(Br)cc2)C(=O)/C(=C/c2ccc(Br)cc2)C1,GI50,HL-60(TB) leukemia,1.86 µM
same,TGI,HL-60(TB) leukemia,5.63 µM
same,GI50,HOP-62 NSCLC,0.259 µM
same,TGI,HOP-62 NSCLC,0.829 µM
same,GI50,MCF7 breast,0.271 µM
same,TGI,MCF7 breast,1.56 µM
same,GI50,NCI-H23 lung,1.31 µM
same,TGI,NCI-H23 lung,3.46 µM
same,GI50,NCI-H460 lung,0.827 µM
same,TGI,NCI-H460 lung,3.07 µM
same,GI50,NCI/ADR-RES ovarian,1.36 µM
same,TGI,NCI/ADR-RES ovarian,32.8 µM
same,GI50,T-47D breast,0.673 µM
same,TGI,T-47D breast,2.54 µM
same,GI50,TK-10 renal,0.357 µM
same,TGI,TK-10 renal,1.28 µM
CCCCCCCCCCNCCSS(=O)(=O)O,GI50,HL-60(TB) leukemia,1.76 µM
same,TGI,HL-60(TB) leukemia,3.74 µM
same,GI50,HOP-62 NSCLC,1.86 µM
same,TGI,HOP-62 NSCLC,3.58 µM
same,GI50,MCF7 breast,1.81 µM
same,TGI,MCF7 breast,3.38 µM
same,GI50,NCI-H23 lung,1.9 µM
same,TGI,NCI-H23 lung,4.49 µM
same,GI50,NCI-H460 lung,1.72 µM
same,TGI,NCI-H460 lung,3.22 µM
same,GI50,NCI/ADR-RES ovarian,2.11 µM
same,TGI,NCI/ADR-RES ovarian,4.37 µM
same,GI50,T-47D breast,10.9 µM
same,TGI,T-47D breast,29.5 µM
same,GI50,TK-10 renal,5.31 µM
same,TGI,TK-10 renal,17.7 µM
C#C[C@@]1(O)[C@@H](CO)O[C@@H](n2cc(C(F)(F)F)c3c(N)ncnc32)[C@@H]1O,GI50,HL-60(TB) leukemia,0.278 µM
same,TGI,HL-60(TB) leukemia,0.984 µM
same,GI50,HOP-62 NSCLC,1.75 µM
same,TGI,HOP-62 NSCLC,> 100 µM
same,GI50,MCF7 breast,0.0711 µM
same,GI50,NCI-H23 lung,0.651 µM
same,TGI,NCI-H23 lung,8.19 µM
same,GI50,NCI-H460 lung,0.536 µM
same,TGI,NCI-H460 lung,10.6 µM
same,GI50,NCI/ADR-RES ovarian,0.487 µM
same,TGI,NCI/ADR-RES ovarian,> 24.7 µM
same,GI50,T-47D breast,0.0639 µM
same,TGI,T-47D breast,3.77 µM
same,GI50,TK-10 renal,0.966 µM
same,TGI,TK-10 renal,> 28.2 µM
CCN(CC)c1ccc(-c2cc(-c3cc(OC)c(OC)c(OC)c3)nc(N3CCC(O)CC3)c2C#N)cc1,GI50,HL-60(TB) leukemia,0.497 µM
same,TGI,HL-60(TB) leukemia,2.33 µM
same,GI50,HOP-62 NSCLC,1.01 µM
same,TGI,HOP-62 NSCLC,11.9 µM
same,GI50,MCF7 breast,0.628 µM
same,GI50,NCI-H23 lung,0.87 µM
same,TGI,NCI-H23 lung,4.68 µM
same,GI50,NCI-H460 lung,0.245 µM
same,TGI,NCI-H460 lung,1.62 µM
same,GI50,NCI/ADR-RES ovarian,0.272 µM
same,TGI,NCI/ADR-RES ovarian,5.95 µM
same,GI50,T-47D breast,0.495 µM
same,TGI,T-47D breast,3.8 µM
same,GI50,TK-10 renal,1.1 µM
same,TGI,TK-10 renal,6.92 µM
COc1ccc(-c2cc(-c3ccc(Cl)cc3)nc(NCCCCNc3ccnc4cc(Cl)ccc34)n2)cc1,GI50,HL-60(TB) leukemia,5.08 µM
same,TGI,HL-60(TB) leukemia,22.1 µM
same,GI50,HOP-62 NSCLC,1.69 µM
same,TGI,HOP-62 NSCLC,3.44 µM
same,GI50,MCF7 breast,1.82 µM
same,TGI,MCF7 breast,3.73 µM
same,GI50,NCI-H23 lung,2.61 µM
same,TGI,NCI-H23 lung,9.3 µM
same,GI50,NCI-H460 lung,2.04 µM
same,TGI,NCI-H460 lung,4.35 µM
same,GI50,NCI/ADR-RES ovarian,1.6 µM
same,TGI,NCI/ADR-RES ovarian,3.37 µM
same,GI50,T-47D breast,12.3 µM
same,TGI,T-47D breast,31.4 µM
same,GI50,TK-10 renal,3.95 µM
same,TGI,TK-10 renal,13.3 µM
O=C1Cc2cc(CCn3cncn3)c(Cl)cc2N1,GI50,HL-60(TB) leukemia,> 100 µM
same,TGI,HL-60(TB) leukemia,> 100 µM
same,GI50,HOP-62 NSCLC,29.9 µM
same,TGI,HOP-62 NSCLC,> 100 µM
same,GI50,MCF7 breast,4.02 µM
same,TGI,MCF7 breast,> 100 µM
same,GI50,NCI-H23 lung,> 100 µM
same,TGI,NCI-H23 lung,> 100 µM
same,GI50,NCI-H460 lung,68.6 µM
same,TGI,NCI-H460 lung,> 100 µM
same,GI50,NCI/ADR-RES ovarian,5.85 µM
same,TGI,NCI/ADR-RES ovarian,> 100 µM
same,GI50,T-47D breast,> 100 µM
same,TGI,T-47D breast,> 100 µM
same,GI50,TK-10 renal,> 100 µM
same,TGI,TK-10 renal,> 100 µM
Oc1ccc(C(O)(c2ccccc2)c2ccccc2)c2ccccc12,TGI,HL-60(TB) leukemia,> 100 µM
same,TGI,HOP-62 NSCLC,7.16 µM
same,TGI,MCF7 breast,> 100 µM
same,TGI,NCI-H23 lung,11.8 µM
same,TGI,NCI-H460 lung,> 100 µM
same,TGI,NCI/ADR-RES ovarian,6.58 µM
same,TGI,T-47D breast,24 µM
same,TGI,TK-10 renal,8.73 µM
COc1cc(-c2nc3ccccc3o2)cc(CN2CCCCC2)c1O,GI50,HL-60(TB) leukemia,4.77 µM
same,TGI,HL-60(TB) leukemia,36.9 µM
same,GI50,HOP-62 NSCLC,2.58 µM
same,TGI,HOP-62 NSCLC,9.96 µM
same,GI50,MCF7 breast,1.58 µM
same,TGI,MCF7 breast,4.34 µM
same,GI50,NCI-H23 lung,1.54 µM
same,TGI,NCI-H23 lung,5.26 µM
same,GI50,NCI-H460 lung,2.84 µM
same,TGI,NCI-H460 lung,10.9 µM
same,GI50,NCI/ADR-RES ovarian,5.79 µM
same,TGI,NCI/ADR-RES ovarian,76.4 µM
same,GI50,T-47D breast,17 µM
same,TGI,T-47D breast,> 100 µM
same,GI50,TK-10 renal,31.2 µM
same,TGI,TK-10 renal,> 85.8 µM
Cc1ccc(-c2nc(-c3nccc4ccccc34)oc2-c2ccccc2)cc1,TGI,HL-60(TB) leukemia,> 100 µM
same,TGI,HOP-62 NSCLC,> 100 µM
same,TGI,MCF7 breast,> 100 µM
same,TGI,NCI-H23 lung,> 100 µM
same,TGI,NCI-H460 lung,> 100 µM
same,TGI,NCI/ADR-RES ovarian,> 100 µM
same,TGI,T-47D breast,> 100 µM
same,TGI,TK-10 renal,> 100 µM
COC1C=COC2(C)Oc3c(C)c(O)c4c(O)c(c(C5SCCS5)c(O)c4c3C2=O)NC(=O)/C(C)=C\C=CC(C)C(O)C(C)C(O)C(C)C(OC(C)=O)C1C (configuration not stated),TGI,HL-60(TB) leukemia,12.5 µM
same,TGI,HOP-62 NSCLC,46 µM
same,TGI,MCF7 breast,24.2 µM
same,TGI,NCI-H23 lung,18.4 µM
same,TGI,NCI-H460 lung,18 µM
same,TGI,NCI/ADR-RES ovarian,34.6 µM
same,TGI,T-47D breast,11.7 µM
same,TGI,TK-10 renal,14.2 µM
Cc1c2ccncc2c(C)c2c1sc1ccccc12,TGI,HL-60(TB) leukemia,17.3 µM
same,TGI,HOP-62 NSCLC,21.9 µM
same,TGI,MCF7 breast,18.1 µM
same,TGI,NCI-H23 lung,25.2 µM
same,TGI,NCI-H460 lung,14.3 µM
same,TGI,NCI/ADR-RES ovarian,25 µM
same,TGI,T-47D breast,> 100 µM
same,TGI,TK-10 renal,48.9 µM
O=C(/C=C/c1ccccn1)c1ccc(OCc2nnc(-c3ccc(Cl)cc3)o2)cc1,GI50,HL-60(TB) leukemia,2.46 µM
same,TGI,HL-60(TB) leukemia,7.68 µM
same,GI50,HOP-62 NSCLC,2.26 µM
same,TGI,HOP-62 NSCLC,5.65 µM
same,GI50,MCF7 breast,0.378 µM
same,TGI,MCF7 breast,1.68 µM
same,GI50,NCI-H23 lung,2.13 µM
same,TGI,NCI-H23 lung,4.58 µM
same,GI50,NCI-H460 lung,3.24 µM
same,TGI,NCI-H460 lung,11.1 µM
same,GI50,NCI/ADR-RES ovarian,3.67 µM
same,TGI,NCI/ADR-RES ovarian,41.3 µM
same,GI50,T-47D breast,2.65 µM
same,TGI,T-47D breast,8.64 µM
same,GI50,TK-10 renal,2.68 µM
same,TGI,TK-10 renal,6.24 µM
COc1ccc(-c2cn(-c3ccc(OC)c(OC)c3)c(=O)[nH]2)cc1,GI50,HL-60(TB) leukemia,36.9 µM
same,TGI,HL-60(TB) leukemia,> 100 µM
same,GI50,HOP-62 NSCLC,> 100 µM
same,TGI,HOP-62 NSCLC,> 100 µM
same,GI50,MCF7 breast,> 100 µM
same,TGI,MCF7 breast,> 100 µM
same,GI50,NCI-H23 lung,> 100 µM
same,TGI,NCI-H23 lung,> 100 µM
same,GI50,NCI-H460 lung,> 100 µM
same,TGI,NCI-H460 lung,> 100 µM
same,GI50,NCI/ADR-RES ovarian,85.8 µM
same,TGI,NCI/ADR-RES ovarian,> 100 µM
same,GI50,T-47D breast,51.5 µM
same,TGI,T-47D breast,> 100 µM
same,GI50,TK-10 renal,> 100 µM
same,TGI,TK-10 renal,> 100 µM
